Values quoted from earlier work, collected in patent US8283180B2, “Periodic acid-schiff staining with detection in the infrared range” (Amicus Therapeutics, Inc., priority 2007, dated 2012).

How the values were obtained:
[1] = test system: Japanese medaka (Oryzias latipes); conditions: low DCA exposure concentrations; as early as week two of exposure

Compound	left-ventricular mass index (infantile Pompe disease)	motor function by the Alberta Infant Motor Scale (AIMS) (infantile Pompe disease; unblinded assessment)	changes in the liver [1]	carcinogenicity (rats)	carcinogenicity (mice)
Myozyme: enzyme replacement therapy with recombinant α-glucosidase, approved for infantile Pompe disease	improved with treatment	did not improve with treatment	–	–	–
O=C(O)C(Cl)Cl [DCA, dichloroacetic acid]	–	–	marked hepatocellular cytoplasmic vacuolation, cytomegaly, karyomegaly, nuclear atypia and multifocal areas of hepatocellular necrosis and loss	carcinogenic	carcinogenic
